Test: Human HepG2 cell viability assay in 384 well format
Assay type: toxicity, cell-based
Set-up: dose 125 nL, time 70.5 hour; cytotoxicity at 70.5 h: concentration not given beside the values
Conditions: HepG2 cells, read-out: Inhibition

Going from COc1ccc(CN2C[C@@H](CN(C)CCO)[C@@H](CO)C2)cc1Cl to COc1ccc(CN2CC[C@H]3[C@H](CO[C@H]3CNC(=O)N(C)C)C2)cc1, the cytotoxicity at 70.5 h rises from -7.1% to -0.91%.

Compared with O=S(=O)(c1cnccc1N1CCN(CCO)CC1)N1CCOCC1, CCS(=O)(=O)N1CCC2(CCN(Cc3cccc(OC)c3)CC2)CC1 is lower in cytotoxicity at 70.5 h: 11.8% for the first, -2.06% for the second.

Going from O=C(Cc1ccccc1)NCCNS(=O)(=O)C1CCCCC1 to O=C(Cc1ccccc1)N1CCCC2(COCCN(CC3CC3)C2)C1 (stereo unspecified), the cytotoxicity at 70.5 h rises from -2.64% to -0.0192%.

First: CCn1ncc(S(=O)(=O)NC(C)c2cc(OC)ccc2OC)c1C (stereo unspecified)
Second: CC(CS(C)(=O)=O)NCc1cc(Cl)ccc1F (stereo unspecified)
The cytotoxicity at 70.5 h of the first is higher: 20.2% for the first, 19.9% for the second.

Compared with O=C(Nc1cc(C(F)(F)F)c[nH]c1=O)N1CCCSCC1, CC(=O)N1CCC2(CCN(C(=O)c3cccc(C(F)(F)F)c3)CC2)C1 is higher in cytotoxicity at 70.5 h: -8.3% for the first, 7.98% for the second.

Compared with COc1ccccc1N1CCN(C(=O)NC(C)c2nncn2C)CC1 (stereo unspecified), COc1ccccc1Oc1ncccc1CNC(=O)C1(C)CCCNC1 (stereo unspecified) is higher in cytotoxicity at 70.5 h: -5.73% for the first, -1.4% for the second.

Compared with COCc1nc(N(C)C)ncc1C(=O)NC(C)c1ccccc1 (stereo unspecified), COc1ccccc1CC(=O)NCc1ccnc(NC2CC2)c1 is higher in cytotoxicity at 70.5 h: -5.51% for the first, -0.149% for the second.

Going from CCCC(=O)NCC(=O)Nc1cc(F)ccc1SCC(F)F to CNC(=O)Cc1coc(-c2ccc(F)cc2)n1, the cytotoxicity at 70.5 h falls from 2.19% to -16.9%.

Compared with c1cc(-c2n[nH]c(CNc3nnc(C4CC4)o3)n2)ccn1, Cn1ccnc1-c1noc(NCc2ccc3c(c2)OCCO3)n1 is higher in cytotoxicity at 70.5 h: 0.716% for the first, 8.69% for the second.

First: Cc1ccc2c(CC(=O)N(C)CCN(C)C)c(C)[nH]c2c1C
Second: Cc1ccccc1-c1cc(NC(=O)CC(C)C)n(CCO)n1
The cytotoxicity at 70.5 h of the first is lower: 2.2% for the first, 5.13% for the second.

Compared with COc1cc(C2CC(=O)c3c(O)cc(O)cc3O2)ccc1O (stereo unspecified), Cc1n[nH]c(C)c1C1CCCN1C(=O)Cc1cccc(F)c1 (stereo unspecified) is lower in cytotoxicity at 70.5 h: -8.7% for the first, -19.6% for the second.

Going from CCOC1COC2(CCN(Cc3cccc(C)n3)CC2)C1 (stereo unspecified) to Cn1ccnc1C(=O)N1CCC2(CC1)CC(Oc1cccnc1)CO2 (stereo unspecified), the cytotoxicity at 70.5 h falls from 0.953% to -9.75%.

Going from Cc1ccn2ncc(C(=O)N3CCCC(n4ccnc4C)C3)c2n1 (stereo unspecified) to CC(C)c1nccn1C1CCCN(C(=O)CCNS(C)(=O)=O)C1 (stereo unspecified), the cytotoxicity at 70.5 h falls from -2.96% to -6.32%.

Going from Cc1ccc(C(=O)N2C[C@@H]3OCCN(C)[C@@H]3C2)cn1 to CN1CCN(C(=O)c2nc3c(o2)CN(C(=O)c2cccnc2)C3)CC1, the cytotoxicity at 70.5 h falls from -2.77% to -6.31%.

Compared with Cn1c(=O)ccn(CC(=O)Nc2cccnc2)c1=O, O=C(CS(=O)(=O)Cc1ccc(Br)cc1F)Nc1cn[nH]c1 is lower in cytotoxicity at 70.5 h: 12.6% for the first, 4.02% for the second.

First: NS(=O)(=O)N1CCc2ccc(NC(=O)Cc3ccccc3F)cc21
Second: Cc1ccccc1C(=O)NCc1ccc(N2CCNC(=O)C2)c(F)c1
The cytotoxicity at 70.5 h of the first is higher: 22.4% for the first, -8% for the second.

Compared with COc1ccc(OCCc2sc(C3(O)CCCNCC3)nc2C)cc1 (stereo unspecified), CO[C@@H]1CC[C@@H](NC(=O)c2ccc(OCCN3CCCC3)cc2)[C@H]1O is lower in cytotoxicity at 70.5 h: 2.2% for the first, -4.63% for the second.

Compared with Cn1ccc(C(=O)N2CCC(Cc3cnc4[nH]ccc4c3)CC2)n1, CC(=O)c1cccc(S(=O)(=O)N2CCC(c3noc(C)n3)CC2)c1 is lower in cytotoxicity at 70.5 h: -5.86% for the first, -9.37% for the second.

Going from CN(C)C(CNC(=O)c1nc(N2CCOCC2)ncc1Cl)c1cccs1 (stereo unspecified) to CCOc1ccc(Cl)cc1C(C(=O)O)N1CCCC1 (stereo unspecified), the cytotoxicity at 70.5 h rises from -8.97% to -2.88%.

Compared with CC1CN(c2ncnc3c2cnn3C)CCN1c1nccs1 (stereo unspecified), Cn1ccnc1CN1CC[C@H]2CO[C@H](CNc3ncccn3)[C@H]2C1 is lower in cytotoxicity at 70.5 h: -4.86% for the first, -5.82% for the second.

First: NC(=O)CN1CCC2(CC1)C[C@@H](O)[C@H](c1ccccc1)NC2=O
Second: Cc1ncc2c(n1)CCCC2NC(=O)c1ccccc1C(=O)O (stereo unspecified)
The cytotoxicity at 70.5 h of the first is higher: -0.832% for the first, -13.5% for the second.

Compared with NS(=O)(=O)CC1CCN(c2ncccc2C(F)(F)F)CC1, CC(O)(CN1CCC2(CC1)OCCO2)c1cccc(C(F)(F)F)c1 (stereo unspecified) is lower in cytotoxicity at 70.5 h: 7.95% for the first, -4.13% for the second.

Going from CC1CCN(S(=O)(=O)c2cccn(CC(=O)NC3CCCC3)c2=O)CC1 to OC1(CN(Cc2cccnc2)C2CCCCC2)CNCCOC1 (stereo unspecified), the cytotoxicity at 70.5 h rises from -3.39% to -2.72%.

Compared with O=C1CCCN1C1CCCN(CCn2cc(Cl)cn2)C1 (stereo unspecified), Cc1cccc(-c2nc(CN3CCCC3Cn3cc(C)cn3)no2)c1 (stereo unspecified) is higher in cytotoxicity at 70.5 h: -26.9% for the first, 6.59% for the second.

First: Cc1nnc2n1CCN(C(C(N)=O)c1ccc(F)cc1)C2 (stereo unspecified)
Second: CCn1cnnc1CNC(=O)N1CCOC(c2ccc(Cl)cc2)C1 (stereo unspecified)
The cytotoxicity at 70.5 h of the first is lower: -16.8% for the first, -13.5% for the second.

Compared with O=C(Nc1ccccc1CCc1ccccn1)NC1CCOCC1, CNC(=O)c1cccc(NCCOc2ccc(CC#N)cc2)c1C is lower in cytotoxicity at 70.5 h: 0.573% for the first, -1.82% for the second.

First: CCc1nnc2ccc(NCC3(N4CCCCC4)CCOCC3)nn12
Second: Cc1ccsc1-c1cccc(-c2ccn(CC3CCNC3)n2)c1 (stereo unspecified)
The cytotoxicity at 70.5 h of the first is lower: -7.09% for the first, 21.5% for the second.

Going from CC(C)N1CCCC1c1cc(CO)[nH]n1 (stereo unspecified) to CN(CCc1ccncc1)C(=O)c1sccc1OC(F)F, the cytotoxicity at 70.5 h falls from -4.38% to -10.6%.

— ChEMBL document CHEMBL3507680, “University of Dundee, Gates Library screen for HepG2 cell viability”
